In ChEMBL document CHEMBL3045546, “Synthesis and antimicrobial screening of 4-thiazolidinone and 2-azetidinone derivatives of piperazine” (2013):
Values after ≈ are worked out from the molar mass of the structure shown.

Key:
Format in all cases: functional
Bacillus cereus = assay: Antimicrobial activity against Bacillus cereus ATCC 11778 assessed as growth inhibition by broth dilution method
Bacillus pumilus = assay: Antimicrobial activity against Bacillus pumilus ATCC 14884 assessed as growth inhibition by broth dilution method
Staphylococcus hominis = assay: Antimicrobial activity against Staphylococcus hominis ATCC 27844 assessed as growth inhibition by broth dilution method
Staphylococcus aureus = assay: Antimicrobial activity against Staphylococcus aureus ATCC 25923 assessed as growth inhibition by broth dilution method
[1] = test system: Staphylococcus epidermidis; assay: Antimicrobial activity against Staphylococcus epidermidis ATCC 12228 assessed as growth inhibition by broth dilution method
Micrococcus luteus = assay: Antimicrobial activity against Micrococcus luteus ATCC 4698 assessed as growth inhibition by broth dilution method
Bacillus subtilis = assay: Antimicrobial activity against Bacillus subtilis ATCC 6633 assessed as growth inhibition by broth dilution method
Aspergillus fumigatus = assay: Antimicrobial activity against Aspergillus fumigatus assessed as growth inhibition by broth dilution method
Aspergillus flavus = assay: Antimicrobial activity against Aspergillus flavus ATCC 15517 assessed as growth inhibition by broth dilution method
Trichoderma viride = assay: Antimicrobial activity against Hypocrea rufa ATCC 52440 assessed as growth inhibition by broth dilution method
Fusarium solani = assay: Antimicrobial activity against Fusarium solani ATCC 38136 assessed as growth inhibition by broth dilution method
Trichophyton longifusum = assay: Antimicrobial activity against Trichophyton longifusum ATCC 22397 assessed as growth inhibition by broth dilution method
Rhizoctonia solani = assay: Antimicrobial activity against Rhizoctonia solani ATCC 76131 assessed as growth inhibition by broth dilution method
Alternaria alternata = assay: Antimicrobial activity against Alternaria alternata ATCC 66868 assessed as growth inhibition by broth dilution method
Microsporum canis = assay: Antimicrobial activity against Arthroderma otae ATCC 11622 assessed as growth inhibition by broth dilution method
Candida albicans = assay: Antimicrobial activity against Candida albicans ATCC 10231 assessed as growth inhibition by broth dilution method
Aspergillus awamori = assay: Antimicrobial activity against Aspergillus awamori ATCC 22342 assessed as growth inhibition by broth dilution method
Aspergillus niger = assay: Antimicrobial activity against Aspergillus niger ATCC 9142 assessed as growth inhibition by broth dilution method
Pseudomonas aeruginosa = assay: Antimicrobial activity against Pseudomonas aeruginosa ATCC 10145 assessed as growth inhibition by broth dilution method
Escherichia coli = assay: Antimicrobial activity against Escherichia coli ATCC 25922 assessed as growth inhibition by broth dilution method
Salmonella typhi = assay: Antimicrobial activity against Salmonella enterica subsp. enterica serovar Typhi ATCC 19430 assessed as growth inhibition by broth dilution method
Klebsiella pneumoniae = assay: Antimicrobial activity against Klebsiella pneumoniae ATCC 13883 assessed as growth inhibition by broth dilution method
Proteus mirabilis = assay: Antimicrobial activity against Proteus mirabilis ATCC 49565 assessed as growth inhibition by broth dilution method
Proteus vulgaris = assay: Antimicrobial activity against Proteus vulgaris ATCC 13315 assessed as growth inhibition by broth dilution method

SMILES	MIC (Bacillus cereus)	MIC (Bacillus pumilus)	MIC (Staphylococcus hominis)	MIC (Staphylococcus aureus)	MIC [1]	MIC (Micrococcus luteus)	MIC (Bacillus subtilis)	MIC (Aspergillus fumigatus)	MIC (Aspergillus flavus)	MIC (Trichoderma viride)	MIC (Fusarium solani)	MIC (Trichophyton longifusum)	MIC (Rhizoctonia solani)	MIC (Alternaria alternata)	MIC (Microsporum canis)	MIC (Candida albicans)	MIC (Aspergillus awamori)	MIC (Aspergillus niger)	MIC (Pseudomonas aeruginosa)	MIC (Escherichia coli)	further results
O=C1CSC(c2ccco2)N1CCN1CCNCC1 (stereo not drawn)	150 µg/mL (≈ 533 µM)	150 µg/mL (≈ 533 µM)	75 µg/mL (≈ 267 µM)	150 µg/mL (≈ 533 µM)	300 µg/mL (≈ 1070 µM)	75 µg/mL (≈ 267 µM)	75 µg/mL (≈ 267 µM)	150 µg/mL (≈ 533 µM)	150 µg/mL (≈ 533 µM)	150 µg/mL (≈ 533 µM)	300 µg/mL (≈ 1070 µM)	300 µg/mL (≈ 1070 µM)	150 µg/mL (≈ 533 µM)	300 µg/mL (≈ 1070 µM)	300 µg/mL (≈ 1070 µM)	300 µg/mL (≈ 1070 µM)	150 µg/mL (≈ 533 µM)	300 µg/mL (≈ 1070 µM)	75 µg/mL (≈ 267 µM)	75 µg/mL (≈ 267 µM)	MIC (Salmonella typhi): 75 µg/mL (≈ 267 µM); MIC (Klebsiella pneumoniae): 150 µg/mL (≈ 533 µM); MIC (Proteus mirabilis): 150 µg/mL (≈ 533 µM); MIC (Proteus vulgaris): 150 µg/mL (≈ 533 µM)
COc1ccc(C2C(Cl)C(=O)N2CCN2CCN(C(=O)CCl)CC2)cc1O (stereo not drawn)	9.37 µg/mL (≈ 22.5 µM)	9.37 µg/mL (≈ 22.5 µM)	9.37 µg/mL (≈ 22.5 µM)	9.37 µg/mL (≈ 22.5 µM)	9.37 µg/mL (≈ 22.5 µM)	4.68 µg/mL (≈ 11.2 µM)	4.68 µg/mL (≈ 11.2 µM)	18.8 µg/mL (≈ 45 µM)	18.8 µg/mL (≈ 45 µM)	18.8 µg/mL (≈ 45 µM)	18.8 µg/mL (≈ 45 µM)	9.73 µg/mL (≈ 23.4 µM)	18.8 µg/mL (≈ 45 µM)	9.73 µg/mL (≈ 23.4 µM)	18.8 µg/mL (≈ 45 µM)	18.8 µg/mL (≈ 45 µM)	18.8 µg/mL (≈ 45 µM)	18.8 µg/mL (≈ 45 µM)	9.37 µg/mL (≈ 22.5 µM)	9.37 µg/mL (≈ 22.5 µM)	MIC (Salmonella typhi): 4.68 µg/mL (≈ 11.2 µM); MIC (Klebsiella pneumoniae): 9.37 µg/mL (≈ 22.5 µM); MIC (Proteus mirabilis): 9.37 µg/mL (≈ 22.5 µM); MIC (Proteus vulgaris): 9.37 µg/mL (≈ 22.5 µM)
O=C(CCl)N1CCN(CCN2C(=O)C(Cl)C2c2ccccc2O)CC1 (stereo not drawn)	150 µg/mL (≈ 388 µM)	75 µg/mL (≈ 194 µM)	150 µg/mL (≈ 388 µM)	75 µg/mL (≈ 194 µM)	150 µg/mL (≈ 388 µM)	75 µg/mL (≈ 194 µM)	150 µg/mL (≈ 388 µM)	300 µg/mL (≈ 777 µM)	300 µg/mL (≈ 777 µM)	300 µg/mL (≈ 777 µM)	300 µg/mL (≈ 777 µM)	300 µg/mL (≈ 777 µM)	300 µg/mL (≈ 777 µM)	300 µg/mL (≈ 777 µM)	300 µg/mL (≈ 777 µM)	300 µg/mL (≈ 777 µM)	300 µg/mL (≈ 777 µM)	300 µg/mL (≈ 777 µM)	75 µg/mL (≈ 194 µM)	150 µg/mL (≈ 388 µM)	MIC (Salmonella typhi): 75 µg/mL (≈ 194 µM); MIC (Klebsiella pneumoniae): 150 µg/mL (≈ 388 µM); MIC (Proteus mirabilis): 75 µg/mL (≈ 194 µM); MIC (Proteus vulgaris): 75 µg/mL (≈ 194 µM)
O=C(CCl)N1CCN(CCN2C(=O)C(Cl)C2c2cccc(O)c2)CC1 (stereo not drawn)	37.5 µg/mL (≈ 97.1 µM)	37.5 µg/mL (≈ 97.1 µM)	37.5 µg/mL (≈ 97.1 µM)	37.5 µg/mL (≈ 97.1 µM)	18.8 µg/mL (≈ 48.5 µM)	18.8 µg/mL (≈ 48.5 µM)	18.8 µg/mL (≈ 48.5 µM)	75 µg/mL (≈ 194 µM)	75 µg/mL (≈ 194 µM)	37.5 µg/mL (≈ 97.1 µM)	37.5 µg/mL (≈ 97.1 µM)	75 µg/mL (≈ 194 µM)	37.5 µg/mL (≈ 97.1 µM)	37.5 µg/mL (≈ 97.1 µM)	75 µg/mL (≈ 194 µM)	37.5 µg/mL (≈ 97.1 µM)	75 µg/mL (≈ 194 µM)	37.5 µg/mL (≈ 97.1 µM)	37.5 µg/mL (≈ 97.1 µM)	18.8 µg/mL (≈ 48.5 µM)	MIC (Salmonella typhi): 37.5 µg/mL (≈ 97.1 µM); MIC (Klebsiella pneumoniae): 37.5 µg/mL (≈ 97.1 µM); MIC (Proteus mirabilis): 37.5 µg/mL (≈ 97.1 µM); MIC (Proteus vulgaris): 18.8 µg/mL (≈ 48.5 µM)
O=C(CCl)N1CCN(CCN2C(=O)C(Cl)C2c2ccc(O)cc2)CC1 (stereo not drawn)	9.37 µg/mL (≈ 24.3 µM)	9.37 µg/mL (≈ 24.3 µM)	9.37 µg/mL (≈ 24.3 µM)	9.37 µg/mL (≈ 24.3 µM)	9.37 µg/mL (≈ 24.3 µM)	9.37 µg/mL (≈ 24.3 µM)	9.37 µg/mL (≈ 24.3 µM)	9.37 µg/mL (≈ 24.3 µM)	9.37 µg/mL (≈ 24.3 µM)	9.37 µg/mL (≈ 24.3 µM)	18.8 µg/mL (≈ 48.5 µM)	18.8 µg/mL (≈ 48.5 µM)	9.37 µg/mL (≈ 24.3 µM)	18.8 µg/mL (≈ 48.5 µM)	9.37 µg/mL (≈ 24.3 µM)	18.8 µg/mL (≈ 48.5 µM)	9.37 µg/mL (≈ 24.3 µM)	9.37 µg/mL (≈ 24.3 µM)	9.37 µg/mL (≈ 24.3 µM)	4.68 µg/mL (≈ 12.1 µM)	MIC (Salmonella typhi): 9.37 µg/mL (≈ 24.3 µM); MIC (Klebsiella pneumoniae): 9.37 µg/mL (≈ 24.3 µM); MIC (Proteus mirabilis): 9.37 µg/mL (≈ 24.3 µM); MIC (Proteus vulgaris): 4.68 µg/mL (≈ 12.1 µM)
O=C(CCl)N1CCN(CCN2C(=O)C(Cl)C2c2ccccc2)CC1 (stereo not drawn)	18.8 µg/mL (≈ 50.6 µM)	18.8 µg/mL (≈ 50.6 µM)	37.5 µg/mL (≈ 101 µM)	18.8 µg/mL (≈ 50.6 µM)	37.5 µg/mL (≈ 101 µM)	18.8 µg/mL (≈ 50.6 µM)	75 µg/mL (≈ 203 µM)	75 µg/mL (≈ 203 µM)	75 µg/mL (≈ 203 µM)	75 µg/mL (≈ 203 µM)	75 µg/mL (≈ 203 µM)	37.5 µg/mL (≈ 101 µM)	75 µg/mL (≈ 203 µM)	37.5 µg/mL (≈ 101 µM)	75 µg/mL (≈ 203 µM)	75 µg/mL (≈ 203 µM)	75 µg/mL (≈ 203 µM)	75 µg/mL (≈ 203 µM)	18.8 µg/mL (≈ 50.6 µM)	37.5 µg/mL (≈ 101 µM)	MIC (Salmonella typhi): 37.5 µg/mL (≈ 101 µM); MIC (Klebsiella pneumoniae): 37.5 µg/mL (≈ 101 µM); MIC (Proteus mirabilis): 18.8 µg/mL (≈ 50.6 µM); MIC (Proteus vulgaris): 37.5 µg/mL (≈ 101 µM)
COc1cc(C2C(Cl)C(=O)N2CCN2CCN(C(=O)CCl)CC2)ccc1O (stereo not drawn)	9.37 µg/mL (≈ 22.5 µM)	9.37 µg/mL (≈ 22.5 µM)	9.37 µg/mL (≈ 22.5 µM)	9.37 µg/mL (≈ 22.5 µM)	9.37 µg/mL (≈ 22.5 µM)	4.68 µg/mL (≈ 11.2 µM)	9.37 µg/mL (≈ 22.5 µM)	18.8 µg/mL (≈ 45 µM)	9.37 µg/mL (≈ 22.5 µM)	18.8 µg/mL (≈ 45 µM)	18.8 µg/mL (≈ 45 µM)	9.37 µg/mL (≈ 22.5 µM)	9.37 µg/mL (≈ 22.5 µM)	18.8 µg/mL (≈ 45 µM)	18.8 µg/mL (≈ 45 µM)	9.37 µg/mL (≈ 22.5 µM)	18.8 µg/mL (≈ 45 µM)	18.8 µg/mL (≈ 45 µM)	4.68 µg/mL (≈ 11.2 µM)	9.37 µg/mL (≈ 22.5 µM)	MIC (Salmonella typhi): 4.68 µg/mL (≈ 11.2 µM); MIC (Klebsiella pneumoniae): 9.37 µg/mL (≈ 22.5 µM); MIC (Proteus mirabilis): 9.37 µg/mL (≈ 22.5 µM); MIC (Proteus vulgaris): 9.37 µg/mL (≈ 22.5 µM)
